Values quoted from earlier work in US20210321634A1, “Lactobacillus Acidipiscis, Fermented Soymilk, and Preparation Method and Use Thereof” (Hebei Agricultural University, priority 2020, published 2021).

What was measured:
[1] = compared with daidzein
[2] = compared with daidzein and genistein

Row | SMILES | cardiovascular protective activity [1] | DPPH free radical scavenging activity [2]
1 | O=C1c2ccc(O)cc2OCC1c1ccc(O)cc1 (stereo not drawn) [DHD, dihydrodaidzein] | significantly higher | significantly higher
2 | O=C1c2c(O)cc(O)cc2OCC1c1ccc(O)cc1 (stereo not drawn) [DHG, dihydrogenistein] |  | significantly higher
